Assay results reported in patent publication US20260258035A1, “FIVE-MEMBERED AND SIX-MEMBERED NITROGEN-CONTAINING COMPOUND, AND INTERMEDIATE, PREPARATION METHOD AND USE THEREOF” (HANGZHOU SYNRX THERAPEUTICS BIOMEDICAL TECHNOLOGY CO., LTD., priority 2022, published 2026).

How the values were obtained:
HCC1806 = test: Cell viability assay (CellTiter-Glo); format: cell-based, Human; conditions: Homo sapiens, HCC1806, 168 h, HCC1806, 7 days, CellTiter-Glo; read-out: IC50 (nM) in cell viability assay
PARG = PARG (Homo sapiens, UniProt Q86W56); test: Biochemical assay (PARG, TFMU-ADPr substrate)
[1] = 4 nM PARG, 66.2 uM TFMU-ADPr, 3 min at room temperature

PARG, sequence (Q86W56 whole entry): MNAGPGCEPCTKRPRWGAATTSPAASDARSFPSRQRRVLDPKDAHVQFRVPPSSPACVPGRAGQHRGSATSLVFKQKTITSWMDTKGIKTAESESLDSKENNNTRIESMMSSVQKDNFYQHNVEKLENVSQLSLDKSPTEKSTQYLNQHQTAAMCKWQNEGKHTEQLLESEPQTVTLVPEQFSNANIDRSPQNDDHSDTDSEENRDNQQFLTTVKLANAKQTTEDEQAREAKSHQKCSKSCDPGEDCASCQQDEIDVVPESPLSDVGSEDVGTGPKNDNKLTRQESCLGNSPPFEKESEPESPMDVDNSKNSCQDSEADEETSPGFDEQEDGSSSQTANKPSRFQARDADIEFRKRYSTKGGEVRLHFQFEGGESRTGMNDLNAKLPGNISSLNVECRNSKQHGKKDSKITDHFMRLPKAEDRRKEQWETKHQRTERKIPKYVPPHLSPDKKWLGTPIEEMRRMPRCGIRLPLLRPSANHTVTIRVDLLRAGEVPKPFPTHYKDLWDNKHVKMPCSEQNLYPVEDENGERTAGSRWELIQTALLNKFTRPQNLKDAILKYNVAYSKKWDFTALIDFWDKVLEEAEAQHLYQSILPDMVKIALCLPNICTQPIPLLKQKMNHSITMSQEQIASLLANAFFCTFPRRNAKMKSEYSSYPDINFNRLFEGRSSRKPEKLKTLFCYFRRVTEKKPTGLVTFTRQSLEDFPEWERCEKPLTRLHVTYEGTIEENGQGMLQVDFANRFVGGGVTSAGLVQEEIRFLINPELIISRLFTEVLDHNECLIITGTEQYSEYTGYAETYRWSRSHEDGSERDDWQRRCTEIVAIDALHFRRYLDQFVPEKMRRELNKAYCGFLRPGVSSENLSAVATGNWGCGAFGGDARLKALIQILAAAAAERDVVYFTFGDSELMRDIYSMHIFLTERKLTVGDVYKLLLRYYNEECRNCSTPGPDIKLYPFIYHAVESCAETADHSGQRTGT

SMILES | IC50 (HCC1806) [nM] | IC50 (PARG; [1]) [nM] | IC50 (PARG; PARG, TFMU-ADPr substrate) [nM]
N#CC1(NS(=O)(=O)c2cc(C#CC3CCOC3)c3cnc(-c4nnc(C(F)F)s4)n3c2)CC1 (centres unmarked) [Example 375, N-(1-cyanocyclopropyl)-3-(5-(difluoromethyl)-1,3,4-thiadiazol-2-yl)-8-((tetrahydrofuran-3-yl)ethynyl)imidazo[1,5-a]pyridine-6-sulfonamide] | 855 | – | –
CC(C)C(=O)NC1CCCN(c2cc(S(=O)(=O)NC3(C#N)CC3)cn3c(-c4nnc(C(F)(F)F)s4)ncc23)C1 (centres unmarked) [Example 267, N-(1-(6-(N-(1-cyanocyclopropyl)sulfamoyl)-3-(5-(trifluoromethyl)-1,3,4-thiadiazol-2-yl)imidazo[1,5-a]pyridin-8-yl)piperidin-3-yl)isobutyramide] | 1500 | – | –
N#CC1(NS(=O)(=O)c2cc(N3CCCC(N)C3)c3cnc(-c4nnc(C(F)(F)F)s4)n3c2)CC1 (centres unmarked) [Example 262, 8-(3-aminopiperidin-1-yl)-N-(1-cyanocyclopropyl)-3-(5-(trifluoromethyl)-1,3,4-thiadiazol-2-yl)imidazo[1,5-a]pyridine-6-sulfonamide] | 2000 | – | –
C[C@H]1CN(c2cc(S(=O)(=O)NC3(C)COC3)cn3c(-c4nnc(C(F)F)s4)nc(Cl)c23)C[C@H](CO)O1 [Example 397, 1-chloro-3-(5-(difluoromethyl)-1,3,4-thiadiazol-2-yl)-8-((2R,6S)-2-(hydroxymethyl)-6-methylmorpholino)-N-(3-methyloxetan-3-yl)imidazo[1,5-a]pyridine-6-sulfonamide] | 530 | – | –
CC(C)C(=O)N1CCN(c2cc(S(=O)(=O)NC3(C#N)CC3)cc3c(-c4nnc(C(F)F)s4)nc(Cl)n23)CC1 [Example 98, 3-chloro-N-(1-cyanocyclopropyl)-1-(5-(difluoromethyl)-1,3,4-thiadiazol-2-yl)-5-(4-isobutyrylpiperazin-1-yl)imidazo[1,5-a]pyridine-7-sulfonamide] | > 30000 | – | –
N#CC1(NS(=O)(=O)c2cc(N3CCC(CO)(C(F)(F)F)CC3)c3cnc(-c4nnc(C(F)F)s4)n3c2)CC1 [Example 145, N-(1-cyanocyclopropyl)-3-(5-(difluoromethyl)-1,3,4-thiadiazol-2-yl)-8-(4-(hydroxymethyl)-4-(trifluoromethyl)piperidin-1-yl)imidazo[1,5-a]pyridine-6-sulfonamide] | – | 100 to 500 | 316
CN1CCN(c2cc(S(=O)(=O)NC3(C#N)CC3)cn3c(-c4nnc(C(F)F)s4)ncc23)CC1 [Example 38, N-(1-cyanocyclopropyl)-3-(5-(difluoromethyl)-1,3,4-thiadiazol-2-yl)-8-(4-methylpiperazin-1-yl)imidazo[1,5-a]pyridine-6-sulfonamide] | – | < 100 | 16.4
CC(C)C(=O)N1CCN(c2cc(S(=O)(=O)NC3(C#N)CC3)cn3c(-c4cc5n(n4)CC(F)C5)cnc23)CC1 (centres unmarked) [Example 10, N-(1-cyanocyclopropyl)-3-(5-fluoro-5,6-dihydro-4H-pyrrolo[1,2-b]pyrazol-2-yl)-8-(4-isobutyrylpiperazin-1-yl)imidazo[1,2-a]pyridine-6-sulfonamide] | – | 500 to 1000 | –
N#CC1(NS(=O)(=O)c2cc(N3CCC(O)(C(F)(F)F)CC3)c3cnc(-c4nnc(C(F)F)s4)n3c2)CC1 [Example 89, N-(1-cyanocyclopropyl)-3-(5-(difluoromethyl)-1,3,4-thiadiazol-2-yl)-8-(4-hydroxy-4-(trifluoromethyl)piperidin-1-yl)imidazo[1,5-a]pyridine-6-sulfonamide] | – | 100 to 500 | 115
C[C@@H]1CN(c2cc(S(=O)(=O)NC3CC3)cn3c(-c4nnc(C(F)F)s4)nnc23)CCN1C(=O)C1(C)CC1 [Example 118, (R)-N-cyclopropyl-3-(5-(difluoromethyl)-1,3,4-thiadiazol-2-yl)-8-(3-methyl-4-(1-methylcyclopropane-1-carbonyl)piperazin-1-yl)-[1,2,4]triazolo[4,3-a]pyridine-6-sulfonamide] | – | < 100 | 72.4
